Data taken from PMC8151276, “An Integrated Approach toward NanoBRET Tracers for Analysis of GPCR Ligand Engagement” (Molecules, 2021).

Experiments:
[1] = molecular target: T1, OPRL1 (Homo sapiens, UniProt P41146); assay: NanoBRET screen HiBiT-OPRL1 in HEK293; format: binding; conditions: OPRL1
T1 construct: purchased Promega (in-house HiBiT-GPCR construct library, NanoBRET)
Procedure: (§1) Each tracer candidate was screened across the entire library of HiBiT-GPCR constructs using NanoBRET as the detection modality. As depicted in Figure 4A, the specificity of interactions was evaluated through decrease in BRET due to competitive displacement of a bound tracer by excess parental compound. Each tracer was analyzed for binding to each HiBiT-GPCR fusion in the absence and in the presence of competing parental compound. Briefly, HEK293 cells were transfected with HiBiT-GPCR constructs diluted into promoterless DNA to reduce expression and maximize translocation to the cell surface. Each tracer candidate was then screened at concentrations of 1 μM and 0.1 μM across cells expressing these fusions. Cells were treated for 1.5 h with tracer either alone or in the presence of 20 μM competing parental compound (i.e., control). BRET was measured upon addition of purified LgBiT and subsequent complementation with HiBiT genetically fused to a GPCR. The specificity of interactions was assessed through a decrease in BRET signal due to competitive displacement of the bound tracer. To further gauge the robustness of these interactions, the fold response over the control (i.e., BRETtracer/BRETcontrol) was calculated. We chose a 1.5-fold response, which translates to ≥7-fold signal over noise as the minimal threshold required to score an interaction as positive. […]. Below we highlight the screening results obtained for our exemplary fluorescent tracers based on Clozapine, Amitriptyline and AZD1283.
(§2) HiBiT-GPCR DNA constructs were diluted in 10 mM Tris pH 8 to a final concentration of 0.01 μg/μL, arrayed in 96-well plates and stored at −20 °C. For transfection, HEK293 cells were suspended in Opti-MEM (without phenol red) supplemented with 2% fetal bovine serum (Seradigm) and 100 units/mL penicillin–streptomycin (Gibco) at a final concentration of 220,000 cells/mL and dispensed into white 96-well plates at 90 μL/well. Subsequent transfections and screens were carried using an Agilent Bravo Automated Liquid Handling Platform. First, the 96-well HiBiT DNA arrays were diluted 25-fold in Opti-MEM (without serum or phenol red) to a final concentration of 0.0004 μg/μL and 20 μL of the diluted DNAs were transferred into new 96-well plates. Next, promoterless carrier DNA (1 μg/μL) was diluted 25-fold (0.04 μg/μL) and then dispensed into the diluted arrays at 20 μL/well. Following brief mixing, Viafect transfection reagent (Promega) diluted 16-fold into Opti-MEM was dispensed into the plates at 40 μL/well. After mixing by pipetting, plates were incubated for 10 min on the pipetting station deck. The DNA-transfection reagent complexes were then added to plates containing cells. To facilitate the screen, 10 μL of DNA-transfection reagent complexes were added in duplicates to the top 4 and bottom 4 rows, resulting in two identical 48-well arrays per plate. Plates with transfected cells were incubated for 18–20 h at 37 °C/5% CO2. A screen of each tracer across the entire library using two different concentrations requires duplicate plates of transfected cells. Depending on the number of tracers being screened, transfections can be scaled up using the same ratios. The next day, for each tracer, four 20× screening solutions in tracer dilution buffer (Promega) were prepared: two duplicates at final concentration of 20 μM and two duplicates at a final concentration of 2 μM. A competing unmodified compound was added to one of each duplicate at a final concentration of 400 μM. The four resulting solutions were diluted 4-fold in Opti-MEM without serum or phenol red to generate 5× solutions (5 µM and 0.5 µM tracer +/− 100 μM competing compound). To screen the library, a BioTek MultiFlo FX liquid dispenser was used to dispense 22.5 µL of tracer solution to the top 4 rows and 22.5 µL tracer + competing compound solution to the 4 bottom rows. Plates were briefly mixed on an orbital shaker and incubated for 1.5 h at room temperature. […]

[2] = molecular target: T2, OPRK1 (Homo sapiens, UniProt P41145); assay: NanoBRET screen HiBiT-OPRK1 in HEK293; format: binding; conditions: OPRK1
T2 construct: purchased Promega (in-house HiBiT-GPCR construct library, NanoBRET)
T2 sequence (P41145 whole entry): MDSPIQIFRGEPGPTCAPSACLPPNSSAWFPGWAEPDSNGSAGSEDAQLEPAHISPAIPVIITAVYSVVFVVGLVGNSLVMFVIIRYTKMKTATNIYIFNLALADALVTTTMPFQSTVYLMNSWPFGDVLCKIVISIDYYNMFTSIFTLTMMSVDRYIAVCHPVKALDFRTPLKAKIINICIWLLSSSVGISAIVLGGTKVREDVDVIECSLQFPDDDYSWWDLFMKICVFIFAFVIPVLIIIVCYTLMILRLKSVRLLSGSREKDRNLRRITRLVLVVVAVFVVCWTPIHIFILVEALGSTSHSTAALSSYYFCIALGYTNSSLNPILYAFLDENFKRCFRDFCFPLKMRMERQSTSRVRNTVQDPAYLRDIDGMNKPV
Procedure: as §1, §2

T1 sequence (P41146 whole entry): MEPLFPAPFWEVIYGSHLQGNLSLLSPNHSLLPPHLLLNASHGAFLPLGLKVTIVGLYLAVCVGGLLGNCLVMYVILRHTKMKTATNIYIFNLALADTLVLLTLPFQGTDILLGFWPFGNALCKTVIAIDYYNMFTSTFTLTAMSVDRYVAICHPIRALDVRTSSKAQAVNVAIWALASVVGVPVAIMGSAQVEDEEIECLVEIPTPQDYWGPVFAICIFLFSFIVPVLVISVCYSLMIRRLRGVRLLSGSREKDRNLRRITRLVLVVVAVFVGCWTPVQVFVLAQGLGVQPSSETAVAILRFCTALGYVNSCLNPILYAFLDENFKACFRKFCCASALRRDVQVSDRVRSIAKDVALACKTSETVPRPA

CCCn1c(=O)c2[nH]c(-c3ccc(OCC(=O)NCCNC(=O)CCOCCNC(=O)c4ccc(CNC(=O)CCc5ccc6n5[B-](F)(F)[N+]5=C(c7ccc[nH]7)C=CC5=C6)cc4)cc3)nc2n(CCC)c1=O [XAC-3-NB590]
NanoBRET Fold Response ([1]; tracer 0.1μM): 1.12 | NanoBRET Fold Response ([1]; tracer 1μM): 0.72 | NanoBRET Fold Response ([2]; tracer 0.1μM): 0.97 | NanoBRET Fold Response ([2]; tracer 1μM): 1.34
